US8372866B2, “2-aryl and 2-heteroaryl 4H-1-benzopyran-4-one-6-amidino derivatives, new pharmacological agents for the treatment of arthritis, cancer and related pain” (Rottapharm S.p.A., priority 2008, dated 2013)
Where a name gives a salt, the structure may show the parent alone.

Structure (SMILES) | melting point
CC(=N)Nc1ccc2oc(-c3ccc4c(c3)OCO4)cc(=O)c2c1 (as salt: hydrochloride) [Example 4, 2-(benzo[1,3]dioxol-5-yl)-6-[(1-iminoethyl)amino]-4H-1-benzopyran-4-one hydrochloride] | 272.7 to 273.3 °C
CC(=N)Nc1ccc2oc(-c3ccccc3)cc(=O)c2c1 (as salt: hydrochloride) [Example 1, 2-phenyl-6-[(1-iminoethyl)amino]-4H-1-benzopyran-4-one hydrochloride] | 278.2 to 278.8 °C
N=C(CC1CC1)Nc1ccc2oc(-c3ccc(O)cc3)c(O)c(=O)c2c1 (as salt: hydrochloride) [Example 11, 2-(4-hydroxyphenyl-3-hydroxy-6-[(1-iminoethyl-2-cyclopropyl)amino]-4H-1-benzopyran-4-one hydrochloride] | 281 to 281.5 °C

The next lines start with the values.

melting point | Structure (SMILES)
262.3 to 262.9 °C | CC(=N)Nc1ccc2oc(-c3ccc4c(c3)OCO4)c(O)c(=O)c2c1 (as salt: hydrochloride) [Example 16, 2-(benzo[1,3]dioxol-5-yl)-3-hydroxy-6-[(1-iminoethyl)amino]-4H-1-benzopyran-4-one hydrochloride]
284.5 to 286 °C | CC(=N)Nc1ccc2oc(-c3ccc(O)nc3)c(O)c(=O)c2c1 (as salt: hydrochloride) [Example 21, 2-(6-hydroxypyridin-3-yl)-3-hydroxy-6-[(1-iminoethyl)amino]-4H-1-benzopyran-4-one hydrochloride]
188.5 to 190 °C | COCCC(=N)Nc1ccc2oc(-c3ccc4c(c3)OCO4)c(O)c(=O)c2c1 (as salt: hydrochloride) [Example 19, 2-(benzo[1,3]dioxol-5-yl)-3-hydroxy-6-[(1-iminopropyl-3-methoxy)amino]-4H-1-benzopyran-4-one hydrochloride]
260.1 to 261.1 °C | COc1ccc(-c2oc3ccc(NC(C)=N)cc3c(=O)c2O)cc1 (as salt: hydrochloride) (hydrate or solvate) [Example 12, 2-(4-methoxyphenyl)-3-hydroxy-6-[(1-iminoethyl)amino]-4H-1-benzopyran-4-one hydrochloride monohydrate]
